Values quoted from earlier work, collected in US20230157281A1, “COMPOSITIONS AND METHODS FOR REPELLING ANIMALS FROM AN OBJECT” (Texas Tech University System, priority 2020, published 2023).
Where two headings read alike, the source gives them in different places.

Columns and labels:
[1] = test system: cats
[2] = test system: cats; details: preliminary data from another study; dosage not detailed

| Compound | use of litter box ([1]; substance used in litter, result in words, listed as I-felinine) | interest shown by male and female cats [2] | use of litter box ([1]; added to the litter at 50 μg/kg of litter) | use of litter box ([1]; substance used in litter, result in words) |
| --- | --- | --- | --- | --- |
| CC(C)(CCO)SC[C@H](N)C(=O)O [felinine] | attract cats to eliminate in the litter box |  |  |  |
| CC(C)(S)CCO [MMB, 3-Mercapto-3-Methyl Butanol] |  | showed interests | did not alter the use of litterbox | did not increase the use of litter box |
